Among the data in BindingDB's records for doi:10.1111/cbdd.12842 (Jagiellonian University Medical College, 2017) are Ki values, retold here.

By Ki is commonly meant the equilibrium dissociation constant of an inhibitor or competing ligand from its target. Higher therefore signals a looser hold on the target.

Where a name gives a salt, the structure may show the parent alone.

The assay has as its target T1, 5-hydroxytryptamine receptor 1A (Homo sapiens, UniProt P08908).
T1 sequence (P08908 whole entry): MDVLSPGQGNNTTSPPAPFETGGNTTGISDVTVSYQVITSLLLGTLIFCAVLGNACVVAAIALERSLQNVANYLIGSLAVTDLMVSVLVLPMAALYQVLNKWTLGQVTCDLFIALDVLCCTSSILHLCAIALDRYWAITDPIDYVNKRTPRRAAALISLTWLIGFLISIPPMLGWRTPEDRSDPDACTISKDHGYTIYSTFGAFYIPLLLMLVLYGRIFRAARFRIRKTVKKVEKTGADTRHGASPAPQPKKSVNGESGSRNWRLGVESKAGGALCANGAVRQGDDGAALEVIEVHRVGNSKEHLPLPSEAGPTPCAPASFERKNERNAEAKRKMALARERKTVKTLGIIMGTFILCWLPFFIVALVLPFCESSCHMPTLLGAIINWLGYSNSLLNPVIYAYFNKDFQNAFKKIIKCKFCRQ
Description: Radioligand Binding Assay ([3H]-8-OH-DPAT). The following applies: pH 7.4. Here is the method:
Binding experiments were conducted in 96-well microplates in a total volume of 250 μL of buffer (50 mM Tris-HCl pH 7.4, 10 mM MgCl2, 0.5 mM EDTA). Reaction mix included 50 μL solution of test compound, 50 μL of [3H]-8-OH-DPAT, and 150 μL of diluted membranes or the tissue suspension. Incubation condition: 60 min at 27 °C.
As for `CCC(CO)NCCOc1ccc2oc3ccccc3c(=O)c2c1` (stereo not drawn) [R,S-2-{2-[(1-hydroxybutan-2-yl]amino)ethoxy}-9H-xanthen-9-one (9)], the affinity, expressed as Ki, was 659 nM. In other words, the sub-micromolar range.
The same measure for `CCC(CO)NCCCOc1ccc2oc3ccccc3c(=O)c2c1` (stereo not drawn) [R,S-2-{3-[(1-hydroxybutan-2-yl)amino]propoxy}-9H-xanthen-9-one (12)]: over 5000 nM.
Take `CCC(O)CNCCOc1ccc2oc3ccccc3c(=O)c2c1` (stereo not drawn) [R,S-2-{2-[(2-hydroxybutyl)amino]ethoxy}-9H-xanthen-9-one hydrochloride (8a)]: the Ki was 320 nM.
